Test results taken from ChEMBL document CHEMBL3758091, “Identification of N-(6-mercaptohexyl)-3-(4-pyridyl)-1H-pyrazole-5-carboxamide and its disulfide prodrug as potent histone deacetylase inhibitors with in vitro and in vivo anti-tumor efficacy” (Eur J Med Chem, 2016).

What was measured:
Histone deacetylase 1 [1] = molecular target: T1, Histone deacetylase 1 (Homo sapiens, UniProt Q13547); test: Inhibition of recombinant human HDAC1 using Boc-Lys(Ac)-AMC as substrate preincubated for 15 mins followed by substrate addition measured after 60 mins by fluorescence-based assay
A549 = test: cells; type: functional; settings: Homo sapiens, A549, 96 h
Description: Growth inhibition of human A549 cells after 96 hrs by MTT assay

cells [2] = type: functional; settings: Homo sapiens, PC-3, 96 h
Description: Growth inhibition of human PC3 cells after 96 hrs by MTT assay

[3] = Cytotoxicity against HEK293 cells assessed as growth inhibition after 96 hrs by MTT assay; settings: human
Histone deacetylase 4 = Histone deacetylase 4 (Homo sapiens, UniProt P56524); test: Inhibition of recombinant human HDAC4 using Boc-Lys(TFA)-AMC as substrate preincubated for 15 mins followed by substrate addition measured after 60 mins by fluorescence-based assay
HT-29 = test: Growth inhibition of human HT-29 cells after 96 hrs by MTT assay; type: functional
[4] = molecular target: T2, Protein deacetylase HDAC6 (Homo sapiens, UniProt Q9UBN7); test: Inhibition of recombinant human HDAC6 using Boc-Lys(Ac)-AMC as substrate preincubated for 15 mins followed by substrate addition measured after 60 mins by fluorescence-based assay
T2 sequence (Q9UBN7 whole entry): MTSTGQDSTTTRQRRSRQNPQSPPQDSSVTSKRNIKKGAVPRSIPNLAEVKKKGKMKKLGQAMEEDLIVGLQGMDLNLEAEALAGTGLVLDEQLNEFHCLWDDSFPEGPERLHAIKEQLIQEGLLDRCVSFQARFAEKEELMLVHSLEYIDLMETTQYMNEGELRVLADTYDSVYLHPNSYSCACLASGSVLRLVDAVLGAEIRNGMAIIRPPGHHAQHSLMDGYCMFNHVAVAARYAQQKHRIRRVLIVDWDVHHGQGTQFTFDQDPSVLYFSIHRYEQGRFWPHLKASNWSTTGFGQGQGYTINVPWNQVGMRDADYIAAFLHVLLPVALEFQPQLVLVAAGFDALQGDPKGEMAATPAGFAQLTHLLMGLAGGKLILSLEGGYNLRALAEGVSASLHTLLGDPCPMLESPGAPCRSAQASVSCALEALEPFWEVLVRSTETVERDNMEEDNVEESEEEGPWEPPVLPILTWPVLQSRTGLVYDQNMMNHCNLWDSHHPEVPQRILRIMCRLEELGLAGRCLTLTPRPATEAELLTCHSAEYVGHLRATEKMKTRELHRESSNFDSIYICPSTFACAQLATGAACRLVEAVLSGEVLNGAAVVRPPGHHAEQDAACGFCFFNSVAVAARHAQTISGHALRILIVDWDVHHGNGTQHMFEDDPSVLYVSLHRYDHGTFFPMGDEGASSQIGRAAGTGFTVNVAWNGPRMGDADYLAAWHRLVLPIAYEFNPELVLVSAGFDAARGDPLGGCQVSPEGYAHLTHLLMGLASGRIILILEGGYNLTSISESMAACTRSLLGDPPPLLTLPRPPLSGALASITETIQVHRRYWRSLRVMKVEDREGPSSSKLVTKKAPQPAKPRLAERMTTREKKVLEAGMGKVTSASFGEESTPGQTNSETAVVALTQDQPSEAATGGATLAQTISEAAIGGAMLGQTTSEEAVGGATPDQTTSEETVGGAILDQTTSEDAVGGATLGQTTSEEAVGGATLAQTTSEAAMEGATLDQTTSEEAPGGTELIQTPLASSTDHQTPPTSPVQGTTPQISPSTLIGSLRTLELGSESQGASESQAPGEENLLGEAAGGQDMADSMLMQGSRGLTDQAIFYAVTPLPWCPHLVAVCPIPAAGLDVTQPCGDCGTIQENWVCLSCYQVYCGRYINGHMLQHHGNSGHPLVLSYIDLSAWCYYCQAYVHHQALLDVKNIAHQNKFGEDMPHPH

Histone deacetylase = test: Inhibition of HDAC in human HeLa cell nuclear extract using Boc-Lys(Ac)-AMC as substrate preincubated for 15 mins followed by substrate addition measured after 60 mins by fluorescence-based assay
cells [5] = type: functional; settings: Homo sapiens, HCT-116, 96 h
Description: Growth inhibition of human HCT116 cells after 96 hrs by MTT assay

[6] = molecular target: T3, Protein deacetylase HDAC6 (Homo sapiens) (UniProt Q9UBN7); test: Inhibition of HDAC6 in human HCT116 cells assessed as increase in acetylated tubulin level after 24 hrs by Western blot analysis; type: cell-based; settings: HCT-116
T3 sequence (whole entry): T2 sequence (Q9UBN7 whole entry)

MDA-MB-231 = test: cells; type: functional; settings: Homo sapiens, MDA-MB-231, 96 h
Description: Growth inhibition of human MDA-MB-231 cells after 96 hrs by MTT assay

Histone deacetylase 1 [7] = molecular target: T1, Histone deacetylase 1; test: Inhibition of HDAC1 in human HCT116 cells assessed as increase in acetylated histone H3 level after 24 hrs by Western blot analysis; type: cell-based; settings: HCT-116
MCF7 = test: cells; type: functional; settings: Homo sapiens, MCF7, 96 h
Description: Growth inhibition of human MCF7 cells after 96 hrs by MTT assay

cells [8] = type: functional; settings: Homo sapiens, ASPC1, 96 h
Description: Growth inhibition of human Aspc-1 cells after 96 hrs by MTT assay

Histone deacetylase 3 = Histone deacetylase 3 (Homo sapiens, UniProt O15379); test: Inhibition of recombinant human HDAC3 using Boc-Lys(Ac)-AMC as substrate preincubated for 15 mins followed by substrate addition measured after 60 mins by fluorescence-based assay
Histone deacetylase 8 = molecular target: T4, Histone deacetylase 8 (Homo sapiens, UniProt Q9BY41); test: Inhibition of recombinant human HDAC8 using Boc-Lys(TFA)-AMC as substrate preincubated for 15 mins followed by substrate addition measured after 60 mins by fluorescence-based assay
T4 sequence (Q9BY41 whole entry): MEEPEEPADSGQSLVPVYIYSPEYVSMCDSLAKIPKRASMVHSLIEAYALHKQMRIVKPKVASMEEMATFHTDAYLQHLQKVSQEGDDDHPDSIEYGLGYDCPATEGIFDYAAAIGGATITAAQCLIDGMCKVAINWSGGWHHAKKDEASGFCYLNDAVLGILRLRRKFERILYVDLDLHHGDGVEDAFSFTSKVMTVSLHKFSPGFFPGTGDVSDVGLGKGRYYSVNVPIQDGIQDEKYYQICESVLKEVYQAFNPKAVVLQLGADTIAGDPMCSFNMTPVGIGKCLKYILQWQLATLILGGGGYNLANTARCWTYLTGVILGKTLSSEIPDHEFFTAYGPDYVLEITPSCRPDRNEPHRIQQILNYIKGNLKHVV

Histone deacetylase 2 = Histone deacetylase 2 (Homo sapiens, UniProt Q92769); test: Inhibition of recombinant human HDAC2 using Boc-Lys(Ac)-AMC as substrate preincubated for 15 mins followed by substrate addition measured after 60 mins by fluorescence-based assay
Histone deacetylase 11 = molecular target: T5, Histone deacetylase 11 (Homo sapiens, UniProt Q96DB2); test: Inhibition of recombinant human HDAC11 using Boc-Lys(TFA)-AMC as substrate preincubated for 15 mins followed by substrate addition measured after 60 mins by fluorescence-based assay
T5 sequence (Q96DB2 whole entry): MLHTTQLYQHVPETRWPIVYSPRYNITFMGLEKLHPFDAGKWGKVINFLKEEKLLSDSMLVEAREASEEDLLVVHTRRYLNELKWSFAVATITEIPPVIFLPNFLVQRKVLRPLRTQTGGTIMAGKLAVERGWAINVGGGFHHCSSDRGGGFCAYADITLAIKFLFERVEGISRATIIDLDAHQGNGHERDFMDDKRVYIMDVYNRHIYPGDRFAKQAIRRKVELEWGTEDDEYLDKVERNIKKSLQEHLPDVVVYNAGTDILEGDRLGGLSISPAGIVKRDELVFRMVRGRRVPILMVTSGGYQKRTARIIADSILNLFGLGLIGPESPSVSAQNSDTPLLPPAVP

[9] = Antitumor activity against human HCT116 cells xenografted in athymic nude mouse assessed as tumor growth inhibition at 40 mg/kg, ip qd administered for 14 days measured every other day during compound dosing; type: functional; settings: HCT-116, ip, 336 h, read-out: TGI
Mus musculus [10] = test: Toxicity in athymic nude mouse xenografted with human HCT116 cells assessed as mortality at 40 to 80 mg/kg, ip qd administered for 14 days measured every other day during compound dosing; type: organism-based, HCT-116; settings: in vivo, 336 h
[11] = Antitumor activity against human HCT116 cells xenografted in athymic nude mouse assessed as tumor growth inhibition at 80 mg/kg, ip qd administered for 14 days measured every other day during compound dosing; type: functional; settings: HCT-116, ip, 336 h, read-out: TGI
Mus musculus [12] = test: Toxicity in athymic nude mouse xenografted with human HCT116 cells assessed as reduction in body weight at 40 to 80 mg/kg, ip qd administered for 14 days measured every other day during compound dosing; type: organism-based, HCT-116; settings: in vivo, 336 h
HCT-116 = test: Antitumor activity against human HCT116 cells xenografted in ip dosed athymic nude mouse assessed as tumor growth inhibition qd administered for 14 days measured every other day during compound dosing; type: functional, organism-based
Mus musculus [13] = test: Toxicity in athymic nude mouse xenografted with human HCT116 cells assessed as reduction in body weight at 40 mg/kg, ip qd administered for 14 days measured every other day during compound dosing; type: organism-based, HCT-116; settings: in vivo, 336 h
Mus musculus [14] = test: Toxicity in athymic nude mouse xenografted with human HCT116 cells assessed as mortality at 40 mg/kg, ip qd administered for 14 days measured every other day during compound dosing; type: organism-based, HCT-116; settings: in vivo, 336 h

Histone deacetylase 2, sequence (Q92769 whole entry): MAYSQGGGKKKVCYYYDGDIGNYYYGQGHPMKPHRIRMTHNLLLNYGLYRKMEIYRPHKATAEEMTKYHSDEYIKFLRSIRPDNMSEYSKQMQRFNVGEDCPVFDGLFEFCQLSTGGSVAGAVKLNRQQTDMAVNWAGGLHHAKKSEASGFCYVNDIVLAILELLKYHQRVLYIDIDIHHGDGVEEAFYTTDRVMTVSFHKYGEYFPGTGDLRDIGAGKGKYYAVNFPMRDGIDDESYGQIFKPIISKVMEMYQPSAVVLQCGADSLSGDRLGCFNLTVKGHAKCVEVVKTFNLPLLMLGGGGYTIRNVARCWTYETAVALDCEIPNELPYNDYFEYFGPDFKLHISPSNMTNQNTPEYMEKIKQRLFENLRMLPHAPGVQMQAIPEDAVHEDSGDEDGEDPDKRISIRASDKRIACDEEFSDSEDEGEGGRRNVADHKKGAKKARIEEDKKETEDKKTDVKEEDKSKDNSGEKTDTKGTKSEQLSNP
T1 sequence (Q13547 whole entry): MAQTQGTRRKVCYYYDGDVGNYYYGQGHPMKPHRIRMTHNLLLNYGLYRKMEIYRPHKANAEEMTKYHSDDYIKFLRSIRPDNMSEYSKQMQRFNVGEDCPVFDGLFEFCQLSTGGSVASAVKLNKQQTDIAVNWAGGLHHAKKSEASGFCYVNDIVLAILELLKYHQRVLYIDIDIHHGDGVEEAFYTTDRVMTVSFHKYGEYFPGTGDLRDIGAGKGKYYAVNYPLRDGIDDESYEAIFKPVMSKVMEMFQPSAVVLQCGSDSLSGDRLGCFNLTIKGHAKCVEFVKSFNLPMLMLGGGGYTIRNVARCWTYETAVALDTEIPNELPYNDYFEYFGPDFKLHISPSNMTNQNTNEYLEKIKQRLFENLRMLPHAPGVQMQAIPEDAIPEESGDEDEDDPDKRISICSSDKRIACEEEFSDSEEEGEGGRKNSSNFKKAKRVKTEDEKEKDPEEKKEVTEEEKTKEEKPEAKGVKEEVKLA
Histone deacetylase 4, sequence (P56524 whole entry): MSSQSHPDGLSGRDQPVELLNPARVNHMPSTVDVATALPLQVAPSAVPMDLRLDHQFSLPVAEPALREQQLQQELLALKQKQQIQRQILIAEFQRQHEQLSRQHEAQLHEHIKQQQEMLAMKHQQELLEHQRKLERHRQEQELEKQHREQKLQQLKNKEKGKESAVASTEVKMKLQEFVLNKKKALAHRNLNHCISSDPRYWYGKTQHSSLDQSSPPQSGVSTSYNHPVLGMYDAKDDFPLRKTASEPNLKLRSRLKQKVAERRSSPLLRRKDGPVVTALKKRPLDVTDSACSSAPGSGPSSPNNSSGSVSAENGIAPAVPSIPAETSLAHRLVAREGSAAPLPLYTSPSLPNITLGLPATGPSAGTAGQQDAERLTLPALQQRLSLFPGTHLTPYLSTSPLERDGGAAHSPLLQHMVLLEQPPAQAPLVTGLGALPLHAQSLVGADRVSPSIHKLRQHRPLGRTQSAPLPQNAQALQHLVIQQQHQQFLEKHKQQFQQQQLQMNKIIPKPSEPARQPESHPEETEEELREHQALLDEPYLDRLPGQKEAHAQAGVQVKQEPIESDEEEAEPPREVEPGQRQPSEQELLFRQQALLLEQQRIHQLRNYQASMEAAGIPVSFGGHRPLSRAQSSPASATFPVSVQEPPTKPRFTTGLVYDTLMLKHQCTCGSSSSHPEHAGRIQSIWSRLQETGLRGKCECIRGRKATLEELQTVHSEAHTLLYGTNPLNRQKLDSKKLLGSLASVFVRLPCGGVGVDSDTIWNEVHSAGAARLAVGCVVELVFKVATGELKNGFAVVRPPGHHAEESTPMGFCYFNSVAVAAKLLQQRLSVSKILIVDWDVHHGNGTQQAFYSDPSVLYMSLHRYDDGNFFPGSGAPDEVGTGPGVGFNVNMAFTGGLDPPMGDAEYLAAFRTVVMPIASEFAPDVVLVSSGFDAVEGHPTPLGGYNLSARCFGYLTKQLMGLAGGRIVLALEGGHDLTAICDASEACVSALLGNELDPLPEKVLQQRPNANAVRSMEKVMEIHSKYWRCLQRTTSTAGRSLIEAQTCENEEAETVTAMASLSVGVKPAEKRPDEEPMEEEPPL
Histone deacetylase 3, sequence (O15379 whole entry): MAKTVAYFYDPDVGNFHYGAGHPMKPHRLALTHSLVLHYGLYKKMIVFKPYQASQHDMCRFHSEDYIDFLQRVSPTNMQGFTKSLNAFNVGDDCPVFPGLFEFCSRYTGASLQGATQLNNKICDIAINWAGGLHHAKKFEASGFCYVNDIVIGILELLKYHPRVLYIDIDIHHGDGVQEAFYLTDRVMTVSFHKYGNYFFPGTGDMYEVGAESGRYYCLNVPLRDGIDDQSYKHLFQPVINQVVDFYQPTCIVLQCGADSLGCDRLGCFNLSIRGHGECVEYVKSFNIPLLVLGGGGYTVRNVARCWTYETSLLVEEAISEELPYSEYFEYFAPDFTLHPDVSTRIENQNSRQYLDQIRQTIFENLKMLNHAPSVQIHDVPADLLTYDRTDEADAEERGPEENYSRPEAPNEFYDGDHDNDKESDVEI

SMILES	IC50 (Histone deacetylase 1 [1]) [µM]	GI50 (A549) [µM]	GI50 (cells [2]) [µM]	GI50 at 96 h [3] [µM]	IC50 (Histone deacetylase 4) [µM]	GI50 (HT-29; Homo sapiens, HT-29, 96 h) [µM]	IC50 [4] [µM]	IC50 (Histone deacetylase) [µM]	GI50 (cells [5]) [µM]	inhibition [6]	GI50 (MDA-MB-231) [µM]	inhibition (Histone deacetylase 1 [7])	GI50 (MCF7) [µM]	GI50 (cells [8]) [µM]	IC50 (Histone deacetylase 3) [µM]	IC50 (Histone deacetylase 8) [µM]	IC50 (Histone deacetylase 2) [µM]	IC50 (Histone deacetylase 11) [µM]	inhibition in vivo at 40 mg/kg [9] [%]	also measured
O=C(NCCCCCCS)c1cc(-c2cccnc2)n[nH]1	0.052	19.3	9.4	> 50	> 10	22	0.026	0.015	18.1	Dose-dependent effect	42.4	Dose-dependent effect	11.5	14.6	0.029	> 10	0.221	> 10		
O=C(NCCCCCCSSCCCCCCNC(=O)c1cc(-c2ccncc2)n[nH]1)c1cc(-c2ccncc2)n[nH]1		6.07	4.74	14.8		6.92			8.93	Dose-dependent effect	27.3	Dose-dependent effect	7.15	25.3					27	Activity (Mus musculus [10]): Non-toxic; inhibition in vivo at 80 mg/kg [11]: 48%; Activity (Mus musculus [12]): Non-toxic; inhibition (HCT-116): Dose-dependent effect
O=C(CCCCCCC(=O)Nc1ccccc1)NO [VORINOSTAT]																				GI50 (HT-29): 2.88 µM; Activity (Mus musculus [13]): Non-toxic; Activity (Mus musculus [14]): Non-toxic
O=C(NCCCCCCS)c1cc(-c2cnccn2)n[nH]1	0.015				> 10		0.022	0.018	> 50				> 50		0.023	> 10	0.068	> 10		
O=C(NCCCCCCS)c1cc(-c2ccncc2)n[nH]1	0.012	14.4	11	17.5	> 10	10.2	0.018	0.008	25.3	Dose-dependent effect	> 50	Dose-dependent effect	12.2	36.9	0.011	> 10	0.072	> 10		
O=C(NCCCCCCSSCCCCCCNC(=O)c1cc(-c2cccnc2)n[nH]1)c1cc(-c2cccnc2)n[nH]1		5.31	1.25	13.5		5.29			3.03	Dose-dependent effect	10.3	Dose-dependent effect	3.79	3.6					28	
